Laboratory results from publication PMC6475490 (Psychopharmacology, 2018).
Entries after “also recorded” stand apart in the source; their conditions may differ.

Experiments:
DAT = DAT (Rattus norvegicus, UniProt P23977); experiment: DAT-mediated [3H]DA release assay in rat brain synaptosomes; type: biochemical
SERT = SERT (Rattus norvegicus, UniProt P31652); experiment: SERT-mediated [3H]5-HT release assay in rat brain synaptosomes; type: biochemical; conditions: relative to methcathinone 1
DAT, SERT, and NET = type: biochemical, rat; conditions: from DAT, SERT EC50 and NET screening data
NET = NET (Rattus norvegicus, UniProt Q63380); experiment: NET-mediated [3H]MPP+ release screen in rat brain synaptosomes; type: biochemical; conditions: based on % release at 10 µM screening data
Chain of NET (Q63380 1-617): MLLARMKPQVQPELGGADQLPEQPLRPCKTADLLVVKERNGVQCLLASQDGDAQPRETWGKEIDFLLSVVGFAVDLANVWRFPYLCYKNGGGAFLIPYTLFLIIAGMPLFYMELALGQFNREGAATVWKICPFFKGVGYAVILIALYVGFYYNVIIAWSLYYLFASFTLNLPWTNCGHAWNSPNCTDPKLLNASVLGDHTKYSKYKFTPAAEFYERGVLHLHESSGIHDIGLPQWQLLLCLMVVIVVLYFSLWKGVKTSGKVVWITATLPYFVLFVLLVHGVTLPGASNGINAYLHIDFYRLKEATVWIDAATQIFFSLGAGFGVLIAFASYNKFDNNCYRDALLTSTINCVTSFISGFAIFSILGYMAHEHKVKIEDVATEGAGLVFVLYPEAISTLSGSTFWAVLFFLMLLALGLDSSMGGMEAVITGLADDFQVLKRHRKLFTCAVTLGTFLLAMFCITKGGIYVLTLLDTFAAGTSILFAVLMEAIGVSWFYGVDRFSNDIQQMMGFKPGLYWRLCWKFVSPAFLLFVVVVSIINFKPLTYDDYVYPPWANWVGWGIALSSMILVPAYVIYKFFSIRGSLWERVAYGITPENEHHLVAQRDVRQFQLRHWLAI

rats [1] = conditions: ref Glennon et al. 1987; cited from earlier work
baboons = conditions: ref Kaminski and Griffiths 1994; cited from earlier work
rats [2] = conditions: ref Gatch et al. 2015; cited from earlier work
transporters = conditions: CF3 analogs; ref Cozzi et al. 2013; cited from earlier work

Chain of DAT (P23977 whole entry): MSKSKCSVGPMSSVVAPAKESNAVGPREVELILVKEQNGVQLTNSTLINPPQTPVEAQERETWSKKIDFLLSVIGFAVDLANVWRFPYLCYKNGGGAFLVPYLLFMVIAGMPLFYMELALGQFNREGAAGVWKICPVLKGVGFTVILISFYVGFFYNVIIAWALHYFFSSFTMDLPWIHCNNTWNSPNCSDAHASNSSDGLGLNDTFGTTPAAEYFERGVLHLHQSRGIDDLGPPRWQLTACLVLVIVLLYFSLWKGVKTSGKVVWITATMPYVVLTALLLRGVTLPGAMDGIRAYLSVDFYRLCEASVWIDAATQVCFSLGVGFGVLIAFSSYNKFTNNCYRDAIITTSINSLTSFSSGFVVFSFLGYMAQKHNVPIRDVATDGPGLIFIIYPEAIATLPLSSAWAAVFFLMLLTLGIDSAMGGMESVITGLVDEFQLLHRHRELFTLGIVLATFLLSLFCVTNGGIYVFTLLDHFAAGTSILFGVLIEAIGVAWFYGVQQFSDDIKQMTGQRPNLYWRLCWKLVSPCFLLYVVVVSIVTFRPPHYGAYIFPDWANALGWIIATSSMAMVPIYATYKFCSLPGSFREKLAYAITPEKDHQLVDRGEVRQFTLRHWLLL
Chain of SERT (P31652 whole entry): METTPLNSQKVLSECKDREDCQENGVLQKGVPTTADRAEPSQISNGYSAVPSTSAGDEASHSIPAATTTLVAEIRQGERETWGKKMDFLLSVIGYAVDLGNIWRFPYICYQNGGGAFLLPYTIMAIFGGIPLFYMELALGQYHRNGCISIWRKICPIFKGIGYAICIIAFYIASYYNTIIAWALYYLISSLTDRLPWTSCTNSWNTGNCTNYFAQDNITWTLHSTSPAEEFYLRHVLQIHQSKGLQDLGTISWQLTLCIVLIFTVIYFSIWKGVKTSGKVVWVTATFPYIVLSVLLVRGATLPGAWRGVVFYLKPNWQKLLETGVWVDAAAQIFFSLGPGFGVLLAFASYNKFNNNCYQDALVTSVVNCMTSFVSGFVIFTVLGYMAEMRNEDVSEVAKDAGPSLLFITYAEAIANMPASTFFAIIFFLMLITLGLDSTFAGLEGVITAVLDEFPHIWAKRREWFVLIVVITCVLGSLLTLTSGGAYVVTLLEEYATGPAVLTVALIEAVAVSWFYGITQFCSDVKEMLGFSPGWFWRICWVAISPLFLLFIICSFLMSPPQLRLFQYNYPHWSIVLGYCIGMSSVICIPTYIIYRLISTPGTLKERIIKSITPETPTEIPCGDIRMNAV

Compound | fold less potent at DA release (DAT) compared to 1 (DAT; relative to methcathinone 1) | fold more potent at 5-HT release (SERT) compared to 1 (SERT) | transporter selectivity profile in words (DAT, SERT, and NET) | also measured
CNC(C)C(=O)c1ccc(C)c(Cl)c1 (centres unmarked) [Compound 31] | 2.5 fold | 102 fold | – | –
Cl.NCC(=O)c1ccccc1 [Compound 6, phenacylamine, reference compound] | 4.2 fold | – | DAT selective | –
CNC(C)C(=O)c1cccc2ccccc12 (centres unmarked) [Compound 26, 1-naphthylmethcathinone] | – | 198 fold | – | –
CNC(C)C(=O)c1ccccc1F (centres unmarked) [Compound 7] | – | – | DAT selective | –
CNC(C)C(=O)c1ccc(C)cc1 (centres unmarked) [Compound 24, mephedrone, reference compound] | – | 36 fold | – | –
CNC(C)C(=O)c1ccccc1C(F)(F)F (centres unmarked) [Compound 8] | – | – | selective NET releaser; also recorded: selective NE releasers | NET / NE release activity in words (NET): appears active as a NE releaser
CNC(C)C(=O)c1ccc(F)cc1 (centres unmarked) [Compound 21] | 2.4 fold | 2.9 fold | – | –
CNC(C)C(=O)c1cccc(C(F)(F)F)c1 (centres unmarked) [Compound 14] | 26 fold | 14 fold | SERT/NET selective releasers; also recorded: selective 5-HT releasers | –
CNC(C)C(=O)c1ccccc1OC(F)(F)F (centres unmarked) [Compound 9] | – | – | – | NET / NE release activity in words (NET): weak
CNC(C)C(=O)c1cccc(Br)c1 (centres unmarked) [Compound 11] | – | 31 fold | – | fold more potent at DA release (DAT) compared to 1 (DAT; relative to methcathinone 1): ~2 fold
CNC(C)C(=O)c1ccc(Br)cc1 (centres unmarked) [Compound 19] | – | 100 fold | – | –
CNC(C)C(=O)c1ccccc1 (centres unmarked) [Compound 1, methcathinone] | – | – | DAT selective | substitution for amphetamine in drug discrimination (rats [1]): substitute for amphetamine; self-administration (baboons): dose-dependently maintain self-administration
CNC(C)C(=O)c1c[nH]c2ccccc12 (centres unmarked) [Compound 28, 3-indoylmethcathinone] | ~2 fold | 103 fold | – | NET / NE release activity in words (NET): much weaker than its DAT release potency
CNC(C)C(=O)c1ccccc1C (centres unmarked) [Compound 10] | 2 fold | 12 fold | DAT selective | –
CNC(C)C(=O)c1cccc(C)c1 (centres unmarked) [Compound 16] | – | 14.6 fold | – | –
CNC(C)C(=O)c1cccc(F)c1 (centres unmarked) [Compound 13, 3-fluoromethcathinone] | – | 2.9 fold | highly potent, DAT selective compound | locomotor stimulation (rats [2]): induce locomotor stimulation
CNC(C)C(=O)c1ccc(C(F)(F)F)cc1 (centres unmarked) [Compound 22] | – | 15 fold | most serotonergic; also recorded: low DAT selectivity | EC50 (DAT; read-out: DA release EC50, bound stated): > 4 µM; relative selectivity (DAT selectivity) (transporters): < 0.04
